| SMILES | melting point [°C] |
| --- | --- |
| CS(=O)(=O)c1ccc(C(CC2CCCC2)C(=O)Nc2nc3ccccc3s2)cc1C(F)(F)F (stereo not drawn) [Example 31(A), N-Benzothiazol-2-yl-3-cyclopentyl-2-(4-methanesulfonyl-3-trifluoromethyl-phenyl)-propionamide] | 105 to 110 |
| CS(=O)(=O)c1ccc(C(CC2CCCC2)C(=O)Nc2nc3ccccc3[nH]2)cc1C#N (stereo not drawn) [Example 28, N-(1H-Benzimidazol-2-yl)-2-(3-cyano-4-methanesulfonyl-phenyl)-3-cyclopentyl-propionamide] | 148 to 152 |
| CS(=O)(=O)c1ccc(C(CC2CCCC2)C(=O)Nc2nc3ccccc3s2)cc1C#N (stereo not drawn) [Example 26, N-Benzothiazol-2-yl-2-(3-cyano-4-methanesulfonyl-phenyl)-3-cyclopentyl-propionamide] | 115 to 118 |
| CS(=O)(=O)c1ccc([C@@H](CC2CCCC2)C(=O)Nc2nc3ccccc3[nH]2)cc1Cl [Example 21, N-(1H-Benzimidazol-2-yl)-2(R)-(3-chloro-4-methanesulfonyl-phenyl)-3-cyclopentyl-propionamide] | > 215 |
| CS(=O)(=O)c1ccc([C@@H](CC2CCCC2)C(=O)Nc2nc3ccccc3s2)cc1 [Example 14, N-Benzothiazol-2-yl-3-cyclopentyl-2(R)-(4-methanesulfonyl-phenyl)-propionamide] | 100 to 105 |
| O=C(Nc1nc2c(s1)CCCC2)C(CC1CCCC1)c1ccc(Cl)c(Cl)c1 (stereo not drawn) [Example 1, 3-Cyclopentyl-2-(3,4-dichloro-phenyl)-N-(4,5,6,7-tetrahydro-benzothiazol-2-yl)-propionamide] | 170 to 171 |
| CS(=O)(=O)c1ccc(C(CC2CCCC2)C(=O)Nc2nc3ccccc3o2)cc1[N+](=O)[O-] (stereo not drawn) [Example 33, N-Benzoxazol-2-yl-3-cyclopentyl-2-(4-methanesulfonyl-3-nitro-phenyl)-propionamide] | 106 to 111 |
| CS(=O)(=O)c1ccc(C(CC2CCCC2)C(=O)Nc2ccc3ccccc3n2)cc1C(F)(F)F (stereo not drawn) [Example 30, 3-Cyclopentyl-2-(4-methanesulfonyl-3-trifluoromethyl-phenyl)-N-quinolin-2-yl-propionamide] | 90 to 95 |
| CS(=O)(=O)c1ccc(C(CC2CCCC2)C(=O)Nc2nc3ccccc3[nH]2)cc1[N+](=O)[O-] (stereo not drawn) [Example 34, N-(1H-Benzimidazol-2-yl)-3-cyclopentyl-2-(4-methanesulfonyl-3-nitro-phenyl)-propionamide] | 113 to 117 |
| CS(=O)(=O)c1ccc(C(CC2CCCC2)C(=O)Nc2nc3ccccc3s2)cc1 (stereo not drawn) [Example 12(A), N-Benzothiazol-2-yl-3-cyclopentyl-2-(4-methanesulfonyl-phenyl)-propionamide] | 206 to 209 |
| CS(=O)(=O)c1ccc(C(CC2CCCC2)C(=O)Nc2nc3ccccc3s2)cc1[N+](=O)[O-] (stereo not drawn) [Example 32, N-Benzothiazol-2-yl-3-cyclopentyl-2-(4-methanesulfonyl-3-nitro-phenyl)-propionamide] | 108 to 113 |
| O=C(Nc1ccc2ccccc2n1)C(CC1CCCC1)c1ccc(Cl)c(Cl)c1 (stereo not drawn) [Example 10, 3-Cyclopentyl-2-(3,4-dichloro-phenyl)-N-quinolin-2-yl-propionamide] | 172 to 173 |
| O=C(Nc1nc2ccccc2s1)C(CC1CCCC1)c1ccc(Cl)c(Cl)c1 (stereo not drawn) [Example 2, N-Benzothiazol-2-yl-3-cyclopentyl-2-(3,4-dichloro-phenyl)-propionamide] | 104 to 105 |
| CS(=O)(=O)c1ccc(C(CC2CCCC2)C(=O)Nc2ccc3ccccc3n2)cc1C#N (stereo not drawn) [Example 29, 2-(3-Cyano-4-methanesulfonyl-phenyl)-3-cyclopentyl-N-quinolin-2-yl-propionamide] | 95 to 99 |
| CS(=O)(=O)c1ccc(C(CC2CCCC2)C(=O)Nc2nc3ccccc3o2)cc1C#N (stereo not drawn) [Example 27, N-Benzoxazol-2-yl-2-(3-cyano-4-methanesulfonyl-phenyl)-3-cyclopentyl-propionamide] | 108 to 112 |
| CS(=O)(=O)c1ccc(C(CC2CCCC2)C(=O)Nc2ccc3ccccc3n2)cc1[N+](=O)[O-] (stereo not drawn) [Example 35, 3-Cyclopentyl-2-(4-methanesulfonyl-3-nitro-phenyl)-N-quinolin-2-yl-propionamide] | 102 to 106 |
| CS(=O)(=O)c1ccc(C(CC2CCCC2)C(=O)Nc2nc3ccccc3[nH]2)cc1Br (stereo not drawn) [Example 24(A), N-(1H-Benzimidazol-2-yl)-2-(3-bromo-4-methanesulfonyl-phenyl)-3-cyclopentyl-propionamide] | > 220 |
| O=C(Nc1nc2ccccc2[nH]1)C(CC1CCCC1)c1ccc(Cl)c(Cl)c1 (stereo not drawn) [Example 8, N-(1H-Benzimidazol-2-yl)-3-cyclopentyl-2-(3,4-dichloro-phenyl)-propionamide] | 193.4 to 196.8 |
| O=C(Nc1nc2ccc(F)cc2s1)C(CC1CCCC1)c1ccc(Cl)c(Cl)c1 (stereo not drawn) [Example 4, 3-Cyclopentyl-2-(3,4-dichloro-phenyl)-N-(6-fluoro-benzothiazol-2-yl)-propionamide] | 131 to 133 |
| CS(=O)(=O)c1ccc(C(CC2CCCC2)C(=O)Nc2ccc3ccccc3n2)cc1Br (stereo not drawn) [Example 25, 2-(3-Bromo-4-methanesulfonyl-phenyl)-3-cyclopentyl-N-quinolin-2-yl-propionamide] | 95 to 100 |
| CS(=O)(=O)c1ccc([C@@H](CC2CCCC2)C(=O)Nc2nc3ccccc3[nH]2)cc1 [Example 13, N-(1H-Benzimidazol-2-yl)-3-cyclopentyl-2(R)-(4-methanesulfonyl-phenyl)-propionamide] | 230 to 232 |

— patent publication US6433188B1, “Fused heteroaromatic glucokinase activators” (priority 2000, dated 2002)
